Where a SMILES comes first, the peptide text is derived from it. [ ]: non-standard residue; d: D form. Nle = CCCC[C@H](N)C(=O)O
Experiments:
GRP receptor [1] = target: T1, GRP receptor (Mus musculus, UniProt P21729); experiment: ^125I-GRP ligand binding assay, detergent solubilized Swiss 3T3 fibroblast membranes; conditions: for Solubilized Membranes Counts/minute Bound Measured as % of Total Added: 10 µM nucleotide added to control containing MgCl2, 0.075% CHAPS, 0.015% CHS, control 28
T1 construct: endogenous in cells; host or cells: mouse Swiss 3T3 fibroblasts (membranes; intact or solubilized with CHAPS/CHS)
Description: Swiss 3T3 fibroblast membranes, prepared in Example 1, were suspended at 15 mg protein/ml in 50 mM HEPES, pH 7.5, 1.0 mM EGTA, 100 mM NaCl, 0.25 M sucrose, 50 µg/ml leupeptin, 5 µg/ml pepstatin, 10 µg/ml aprotinin, 30 µg/ml bacitracin, and 0.5 mM phenylmethylsulfonyl fluoride. A mixture of 3-[(3cholamidopropyl) dimethylammonio]-1- propane sulfonate (CHAPS) and cholesteryl hemisuccinate (CHS) in a ratio of 10:1 was added slowly to yield a final concentration of 0.75% CHAPS. The extract was incubated at 21°C for 30 minutes, cooled to 4°C and the insoluble material was removed by centrifugation at 100,000 x gravity for 60 minutes.
For assays of detergent solubilized membrane extracts, the final CHAPS detergent concentration was adjusted to between 0.050% and 0.20%. The concentration of CHS was maintained at 1/5 to 1/10 the concentration of CHAPS. Samples were also prepared omitting the BSA. After incubation at 15°C for 30 minutes, samples were cooled to 0°C. Bound ligand (^125I-GRP:GRP receptor complex) was recovered by rapid filtration through polyethyleneimine treated Whatman GF/B filters, followed by four washes with 4 mls of ice cold Tris buffer (50 mM Tris/Cl, pH 7.5). The filters were counted in an Isodata 500 gamma counter.
Scatchard analysis of ^125I-GRP binding to intact and solubilized Swiss 3T3 membranes was done. One particular experiment is discussed below, where the binding parameters of the solubilized and the membrane bound form of the receptor are determined under similar conditions.

GRP receptor [2] = target: T1, GRP receptor; experiment: ^125I-GRP ligand binding assay, intact Swiss 3T3 fibroblast membranes; conditions: 5 µM nucleotide added to control containing MgCl2; control 28.9
Description: For assays of detergent solubilized membrane extracts, the final CHAPS detergent concentration was adjusted to between 0.050% and 0.20%. The concentration of CHS was maintained at 1/5 to 1/10 the concentration of CHAPS. Samples were also prepared omitting the BSA. After incubation at 15°C for 30 minutes, samples were cooled to 0°C. […] The filters were counted in an Isodata 500 gamma counter.
One particular experiment is discussed below, where the binding parameters of the solubilized and the membrane bound form of the receptor are determined under similar conditions.

T1 sequence (P21729 whole entry): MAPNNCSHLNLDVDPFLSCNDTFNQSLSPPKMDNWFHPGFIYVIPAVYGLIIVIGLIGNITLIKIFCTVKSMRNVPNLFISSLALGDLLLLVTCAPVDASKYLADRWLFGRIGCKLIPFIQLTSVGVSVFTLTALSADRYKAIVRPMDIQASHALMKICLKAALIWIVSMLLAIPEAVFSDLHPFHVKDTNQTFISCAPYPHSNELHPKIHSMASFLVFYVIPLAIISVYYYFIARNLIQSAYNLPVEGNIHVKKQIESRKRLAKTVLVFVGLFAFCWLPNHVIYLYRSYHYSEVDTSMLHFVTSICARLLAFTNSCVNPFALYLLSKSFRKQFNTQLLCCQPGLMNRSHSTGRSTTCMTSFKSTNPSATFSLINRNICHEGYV

Compound | Solubilized Membranes Counts/minute Bound Measured as % of Total Added (GRP receptor [1]) [%] | IC50 (GRP receptor [1]; unlabeled competitor peptide) [nM] | time at which binding to the soluble receptor leveled off (GRP receptor [1]; 15°C, remained constant for up to 2 hours) [min] | Intact Membranes Counts/minute Bound Measured as % of Total Added (GRP receptor [2]) [%]
3-(125Iodotyrosyl15) gastrin releasing peptide [^125I-GRP] | – | – | ≤ 20 | –
Nc1ncnc2c1ncn2[C@@H]1O[C@H](COP(=O)(O)OP(=O)(O)NP(=O)(O)O)[C@@H](O)[C@H]1O [AMPPNP] | 27.8 | – | – | 33.4
Nc1ncnc2c1ncn2[C@@H]1O[C@H](COP(=O)(O)OP(=O)(O)OP(=O)(O)O)[C@@H](O)[C@H]1O [ATP] | – | – | – | 29.7

Further lines, with some results ahead:

Solubilized Membranes Counts/minute Bound Measured as % of Total Added (GRP receptor [1]) [%] | IC50 (GRP receptor [1]; unlabeled competitor peptide) [nM] | Compound | time at which binding to the soluble receptor leveled off (GRP receptor [1]; 15°C, remained constant for up to 2 hours) [min] | Intact Membranes Counts/minute Bound Measured as % of Total Added (GRP receptor [2]) [%]
26.5 | – | Nc1nc2c(ncn2[C@@H]2O[C@H](COP(=O)(O)OP(=O)(O)NP(=O)(O)O)[C@@H](O)[C@H]2O)c(=O)[nH]1 [GMPPNP] | – | 10.5
27.5 | – | Nc1nc2c(ncn2[C@@H]2O[C@H](COP(=O)(O)OP(=O)(O)OP(=O)(O)O)[C@@H](O)[C@H]2O)c(=O)[nH]1 [GTP] | – | 10.7
– | 0.3 | CCCC[C@H](NC(=O)[C@H](CC(C)C)NC(=O)[C@H](Cc1c[nH]cn1)NC(=O)CNC(=O)[C@@H](NC(=O)[C@H](C)NC(=O)[C@H](Cc1c[nH]c2ccccc12)NC(=O)[C@H](Cc1c[nH]cn1)NC(=O)[C@H](CC(N)=O)NC(=O)CNC(=O)[C@H](CCCNC(=N)N)NC(=O)[C@@H]1CCCN1C(=O)[C@H](Cc1ccc(O)cc1)NC(=O)[C@H](CCCC)NC(=O)[C@@H](N)CCCCN)C(C)C)C(N)=O [[Nle^14,27]GRP13-27] (H-K[Nle]YPRGNHWAVGHL[Nle]-NH2) | – | –
